SMILES strings stand for the structures. Converted amounts (≈) assume the structure as drawn.

The first assay relates to Mycobacterium tuberculosis. Kind of assay: Antitubercular activity against Mycobacterium tuberculosis H37Rv assessed as bacterial growth inhibition measured after 7 days by REMA method. The class given is functional. As to conditions: 168 h, time 7 day.
With `O=c1nc(NCc2cn(-c3ccc(Cl)cc3)nn2)sc2c(Cl)cc(F)cc12`, the MIC turned out to be 0.03 µg/mL (≈ 0.071 µM).

For `Cc1cc(=O)oc2cc(OCc3cn(CCCCCCCCCCn4cc(COc5cc6oc(=O)cc(C)c6cc5Cl)nn4)nn3)c(Cl)cc12`, the MIC stood at 1.56 µg/mL (≈ 2.16 µM).

Consider `O=c1nc(NCc2cn(-c3ccc(Cl)cc3)nn2)sc2c(Cl)cc(Cl)cc12`, for which the MIC is 0.03 µg/mL (≈ 0.0684 µM).

Regarding `COc1ccc(-n2nc(C)cc2Cn2cncn2)cc1`, the MIC was 100 µg/mL (≈ 371 µM).

In the case of `O=c1nc(NCc2cn(-c3ccc(Cl)cc3)nn2)sc2c(Cl)cc(Br)cc12`, the MIC was determined as 0.03 µg/mL (≈ 0.0621 µM).

Regarding `O=c1nc(NCc2cn(-c3ccc(Cl)cc3)nn2)sc2c(Cl)cc(C(F)(F)F)cc12`, the minimum inhibitory concentration (MIC) was found to be 0.03 µg/mL (≈ 0.0635 µM).

For the molecule `Cc1cc(=O)oc2cc(OCc3cn(CCCCCCCCn4cc(COc5cc6oc(=O)cc(C)c6cc5Cl)nn4)nn3)c(Cl)cc12`, the MIC was determined as 1.56 µg/mL (≈ 2.25 µM).

The test system of another assay is Mycobacterium tuberculosis. Kind of assay: Antitubercular activity against Mycobacterium tuberculosis H37Rv assessed as bacterial growth inhibition measured after 7 days by MABA method. The following applies: 168 h, time 7 day. It counts as functional.
For the molecule `CCCCCc1ccc(-c2cn(CC(O)COc3ccc4c(c3)OC3(CCCCC3)CC4=O)nn2)cc1` (configuration not stated), the MIC was found to be 0.78 µg/mL (≈ 1.55 µM).

As for `Cc1ccc2c(c1)C=CC1(CCc3c(nnn3-c3ccccc3)C1)O2` (configuration not stated), the minimal inhibitory concentration (MIC) was 1.56 µg/mL (≈ 4.74 µM).

As to `COc1ccc(-n2nnc3c2CCC2(C=Cc4cc(C)ccc4O2)C3)cc1` (configuration not stated), the MIC was determined as 1.56 µg/mL (≈ 4.34 µM).

Another assay has as its system Mycobacterium tuberculosis. Kind of assay: Antitubercular activity against Mycobacterium tuberculosis H37Rv assessed as bacterial growth inhibition. It counts as functional.
Settings: not given
Regarding `O=C(N/N=C/c1cc(Cl)cc(Cl)c1OCc1cn(-c2ccccc2Cl)nn1)c1ccncc1`, the MIC is 1.56 µg/mL (≈ 3.11 µM).

In the case of `CCCCCCc1cn(CCCC2C3CC4CC(C3)CC2C4)nn1.Cl` (configuration not stated), the MIC turned out to be 6.2 µg/mL.

Consider `O=C1Nc2ccccc2/C1=N\OCc1cn(Cc2ccc(C(F)(F)F)cc2)nn1`, for which the MIC is 1.56 µg/mL (≈ 3.89 µM).

Regarding `O=C1Nc2ccccc2/C1=N\OCc1cn(Cc2ccc(Cl)cc2)nn1`, the MIC is 1.56 µg/mL (≈ 4.24 µM).

With `O=C1Nc2ccccc2/C1=N\OCc1cn(Cc2ccc(F)cc2)nn1`, the MIC amounted to 0.78 µg/mL (≈ 2.22 µM).

Regarding `O=C1Nc2ccccc2/C1=N\OCc1cn(Cc2cccc(C(F)(F)F)c2)nn1`, the MIC was 3.12 µg/mL (≈ 7.79 µM).

The test system of another assay is Mycobacterium tuberculosis. Kind of assay: Antitubercular activity against Mycobacterium tuberculosis mc 2 7000 assessed as bacterial growth inhibition. The class given is functional.
Settings: not given
For the molecule `CC1=C(C(=O)O)N2C(=O)[C@@H](NC(=O)[C@H](N)c3ccccc3)[C@H]2SC1` [CEPHALEXIN ANHYDROUS], the MIC amounted to 72 µM (≈ 25 µg/mL).

For the molecule `CCc1cc(C(N)=S)ccn1` [ETHIONAMIDE], the MIC was found to be 90.4 µM (≈ 15 µg/mL).

The next assay deals with Mycobacterium tuberculosis. Kind of assay: Antitubercular activity against Mycobacterium tuberculosis H37Rv ATCC 27294 assessed as bacterial growth inhibition measured after 10 days by MABA method. It counts as functional. The following applies: H37Rv ATCC 27294, 240 h, time 10 day. For orientation: Resazurin is reduced to fluorescent resorufin, in cell work by metabolically active cells.
In the case of `CC1=CN([C@H]2C[C@H](O)[C@@H](Cn3nnc(C(=O)c4ccc(Cl)cc4)c3-c3ccc(F)cc3)O2)C(=O)CC1=O`, the MIC was found to be 2 µg/mL (≈ 3.81 µM).

`CC1=CN([C@H]2C[C@H](O)[C@@H](Cn3nnc(C(=O)c4ccc(Br)cc4)c3-c3ccc([N+](=O)[O-])cc3)O2)C(=O)CC1=O`: the MIC worked out at 2 µg/mL (≈ 3.35 µM).

On to `CC1=CN([C@H]2C[C@H](O)[C@@H](Cn3nnc(C(=O)c4ccc(Cl)cc4)c3-c3ccc(C(C)(C)C)cc3)O2)C(=O)CC1=O`, for which the MIC came to 2 µg/mL (≈ 3.55 µM).

For the next assay, the system named is Mycobacterium tuberculosis. Kind of assay: Antitubercular activity against Mycobacterium tuberculosis H37Rv assessed as bacterial growth inhibition by micro broth dilution assay. It counts as functional.
Settings: not given
For `CC(C)=CCC/C(C)=C/COc1ccc(/C=C/c2nnc3c4ccccc4cnn23)cc1`, the MIC is 0.5 µg/mL.

In the case of `Brc1ccc(/C=C/c2nnc3c4ccccc4cnn23)cc1`, the MIC was 0.5 µg/mL.

In the case of `CCCCCCCCCNC(=O)Cc1nnc2c3ccccc3cnn12`, the MIC came to 0.5 µg/mL.

With `C#Cc1nnc2c3ccccc3cnn12`, the MIC was found to be 0.5 µg/mL.

A further assay deals with Mycobacterium tuberculosis. Kind of assay: Antitubercular activity against Mycobacterium tuberculosis H37Rv assessed as bacterial growth inhibition at 6.25 ug/ml measured after 5 to 8 days by radiometric analysis relative to control. It counts as functional. More on the design: scale not given: the % may be the effect or the level left. As to conditions: dose 6.25 µg/ml; time 5-8 day.
As for `COc1cccc(-c2nnc3c(C)nc4ccccc4n23)c1`, the Activity worked out at 2%.

As to `Cc1nc2ccccc2n2c(-c3ccc(N(C)C)cc3)nnc12`, the Activity is 2%.

Regarding `Cc1nc2ccccc2n2c(-c3cccc([N+](=O)[O-])c3)nnc12`, the Activity turned out to be 2%.

Regarding `COc1ccc(-c2nnc3c(C)nc4ccccc4n23)cc1`, the Activity came to 2%.

As for `Cc1nc2ccccc2n2c(-c3ccc(Cl)cc3)nnc12`, the Activity came out at 2%.

In the case of `Cc1nc2ccccc2n2c(-c3ccc([N+](=O)[O-])cc3)nnc12`, the Activity is listed as 2%.

On to `Cc1nc2ccccc2n2c(-c3ccccc3)nnc12`, for which the Activity is 2%.

As a reminder, the MIC is the least concentration at which growth counts as inhibited.

For the origin of these results see ChEMBL document CHEMBL5214920, “Emerging impact of triazoles as anti-tubercular agent” (Eur J Med Chem, 2022).
